Experimental data as given in patent US7973181B2, “Hydroxamic acid derivatives as inhibitors of HDAC enzymatic activity” (Chroma Therapeutics Ltd., priority 2005, dated 2011).

Assays:
[1] = biological target: histone deacetylase activity (HeLa nuclear extract); test: HDAC fluorescent activity assay (Biomol Fluor de Lys), HeLa nuclear extract; assay type: biochemical; details: Fluor de Lys substrate
Protocol: The ability of compounds to inhibit histone deacetylase activities was measured using the commercially available HDAC fluorescent activity assay from Biomol. In brief, the Fluor de Lys™ substrate, a lysine with an epsilon-amino acetylation, is incubated with the source of histone deacetylase activity (HeLa nuclear extract) in the presence or absence of inhibitor.
Deacetylation of the substrate sensitises the substrate to Fluor de Lys™ developer, which generates a fluorophore. Thus, incubation of the substrate with a source of HDAC activity results in an increase in signal that is diminished in the presence of an HDAC inhibitor.
Data are expressed as a percentage of the control, measured in the absence of inhibitor, with background signal being subtracted from all samples, as follows: — % activity=((S^i−B)/(S^o−B))×100 where S^i is the signal in the presence of substrate, enzyme and inhibitor, S^o is the signal in the presence of substrate, enzyme and the vehicle in which the inhibitor is dissolved, and B is the background signal measured in the absence of enzyme.
(§1) IC50 values were determined by non-linear regression analysis, after fitting the results of eight data points to the equation for sigmoidal dose response with variable slope (% activity against log concentration of compound), using Graphpad Prism software.
Histone deacetylase activity from crude nuclear extract derived from HeLa cells was used for screening. The preparation, purchased from 4C (Seneffe, Belgium), was prepared from HeLa cells harvested whilst in exponential growth phase. The nuclear extract is prepared according to Dignam JD1983 Nucl. Acid. Res. 11, 1475-1489, snap frozen in liquid nitrogen and stored at −80° C. The final buffer composition was 20 mM Hepes, 100 mM KCl, 0.2 mM EDTA, 0.5 mM DTT, 0.2 mM PMSF and 20% (v/v) glycerol.
Results of testing the compounds of the examples in this assay are given in the second column of Table 1 below.

HUT = test: Cell inhibition assay (SRB cell viability), HUT; assay type: cell-based
Protocol: (§2) The corresponding cancer cell lines (Hela, U937 and HUT) growing in log phase were harvested and seeded at 1000 cells/well (200 ul final volume) into 96-well tissue culture plates. Following 24 h of cell growth cells were treated with compounds (final concentration of 20 uM). Plates were then re-incubated for a further 72 h before a sulphorhodamine B (SRB) cell viability assay was conducted according to Skehan 1990 J Natl Canc Inst 82, 1107-1112.
(§3) Data were expressed as a percentage inhibition of the control, measured in the absence of inhibitor, as follows: — % inhibition=100−((S^i/S^o)×100) where S^i is the signal in the presence of inhibitor and S^o is the signal in the presence of DMSO.
as §1
(§4) Results of testing the compounds of the examples in this assay are given in the third- fifth columns of Table 1.

Hela = test: Cell inhibition assay (SRB cell viability), Hela; assay type: cell-based; details: 72 h, Hela cells
Protocol: as §2, §3, §1, §4

U937 = test: Cell inhibition assay (SRB cell viability), U937; assay type: cell-based; details: U937 cells
Protocol: as §2, §3, §1, §4

Compound | IC50 [1] | IC50 (Hela; Homo sapiens, HeLa) | IC50 (U937; Homo sapiens, U-937, 72 h) | IC50 (Hela) | IC50 (U937; 72 h) | IC50 (HUT; 72 h, HUT cells) | IC50 (HUT; HUT cells, 72 h)
N[C@@H](CCOc1ccc(CNCc2ccc3cc(C(=O)NO)sc3c2)cc1)C(=O)O [Example 10, (S)-2-Amino-4-(4-{[(2-hydroxycarbamoyl-benzo[b]thiophen-6-ylmethyl)-amino]-methyl}-phenoxy)-butyric acid] | < 100 nM | – | – | – | – | – | –
CC(=O)N[C@H](Cc1ccc(NC(=O)CCCCCCC(=O)NO)cc1)C(=O)OC1CCCC1 [Example 3, (R)-2-Acetylamino-3-[4-(7-hydroxycarbamoyl-heptanoylamino)-phenyl]-propionic acid cyclopentyl ester] | 101 to 1000 nM | > 3300 nM | > 3300 nM | – | – | 330 to 3300 nM | –
N[C@H](CCCOc1ccc(CNCc2ccc3cc(C(=O)NO)sc3c2)cc1)C(=O)O [Example 16, (R)-2-Amino-5-(4-{[(2-hydroxycarbamoyl-benzo[b]thiophen-6-ylmethyl)-amino]-methyl}-phenoxy)-pentanoic acid] | < 100 nM | – | – | – | – | – | –
N[C@@H](CCOc1ccc(CNCc2ccc3cc(C(=O)NO)sc3c2)cc1)C(=O)OC1CCCC1 [Example 9, (S)-2-Amino-4-(4-{[(2-hydroxycarbamoyl-benzo[b]thiophen-6-ylmethyl)-amino]-methyl}-phenoxy)-butyric acid cyclopentyl ester] | < 100 nM | < 330 nM | < 330 nM | – | – | < 330 nM | –
N[C@@H](CCCOc1ccc(CNCc2ccc3cc(C(=O)NO)sc3c2)cc1)C(=O)OC1CCCC1 [Example 17, (S)-2-Amino-5-(4-{[(2-hydroxycarbamoyl-benzo[b]thiophen-6-ylmethyl)-amino]-methyl}-phenoxy)-pentanoic acid cyclopentyl ester] | < 100 nM | – | – | 330 to 3300 nM | 330 to 3300 nM | – | 330 to 3300 nM
N[C@@H](CCOc1cccc(NC(=O)CCCCCCC(=O)NO)c1)C(=O)O [Example 6, (S)-2-Amino-4-[3-(7-hydroxycarbamoyl-heptanoylamino)-phenoxy]-butyric acid] | 101 to 1000 nM | > 3300 nM | 330 to 3300 nM | – | – | 330 to 3300 nM | –
N[C@@H](CCCOc1ccc(CNCc2ccc3cc(C(=O)NO)sc3c2)cc1)C(=O)OC1CCCC1 [Example 11, (S)-2-Amino-5-(4-{[(2-hydroxycarbamoyl-benzo[b]thiophen-6-ylmethyl)-amino]-methyl}-phenoxy)-pentanoic acid cyclopentyl ester] | < 100 nM | < 330 nM | < 330 nM | – | – | < 330 nM | –
CC(=O)N[C@@H](Cc1ccc(NC(=O)CCCCCCC(=O)NO)cc1)C(=O)O [Example 2, (S)-2-Acetylamino-3-[4-(7-hydroxycarbamoyl-heptanoylamino)-phenyl]-propionic acid] | 101 to 1000 nM | > 3300 nM | > 3300 nM | – | – | > 3300 nM | –
N[C@@H](CCOc1cccc(NC(=O)CCCCCCC(=O)NO)c1)C(=O)OC1CCCC1 [Example 5, (S)-2-Amino-4-[3-(7-hydroxycarbamoyl-heptanoylamino)-phenoxy]-butyric acid cyclopentyl ester] | < 100 nM | 330 to 3300 nM | 330 to 3300 nM | – | – | 330 to 3300 nM | –
N[C@H](CCCOc1ccc(CNCc2ccc3cc(C(=O)NO)sc3c2)cc1)C(=O)OC1CCCC1 [Example 15, (R)-2-Amino-5-(4-{[(2-hydroxycarbamoyl-benzo[b]thiophen-6-ylmethyl)-amino]-methyl}-phenoxy)-pentanoic acid cyclopentyl ester] | < 100 nM | 330 to 3300 nM | < 330 nM | – | – | < 330 nM | –
N[C@@H](CCOc1ccc(NC(=O)CCCCCCC(=O)NO)cc1)C(=O)O [Example 8, (S)-2-Amino-4-[4-(7-hydroxycarbamoyl-heptanoylamino)-phenoxy]-butyric Acid] | 101 to 1000 nM | – | – | – | – | – | –
N[C@@H](CCCOc1ccc(CNCc2ccc3cc(C(=O)NO)sc3c2)cc1)C(=O)O [Example 12, (S)-2-Amino-5-(4-{[(2-hydroxycarbamoyl-benzo[b]thiophen-6-ylmethyl)-amino]-methyl}-phenoxy)-pentanoic acid] | < 100 nM | – | – | – | – | – | –

Continued, in another order:

IC50 [1] | IC50 (Hela; Homo sapiens, HeLa) | IC50 (U937; Homo sapiens, U-937, 72 h) | IC50 (Hela) | IC50 (U937; 72 h) | Compound | IC50 (HUT; 72 h, HUT cells) | IC50 (HUT; HUT cells, 72 h)
< 100 nM | – | – | – | – | COc1cc(CNCc2ccc3cc(C(=O)NO)sc3c2)ccc1OCCC[C@H](N)C(=O)O [Example 20, (S)-2-Amino-5-(4-{[(2-hydroxycarbamoyl-benzo[b]thiophen-6-ylmethyl)-amino]-methyl}-2-methoxyphenoxy)-pentanoic acid] | – | –
< 100 nM | – | – | – | – | N[C@H](C(=O)O)c1ccc(Oc2ccc(CNCc3ccc4cc(C(=O)NO)sc4c3)cc2)cc1 [Example 25, (S)-Amino-[4-(4-{[(2-hydroxycarbamoyl-benzo[b]thiophen-6-ylmethyl)-amino]-methyl}-phenoxy)-phenyl]-acetic acid] | – | –
< 100 nM | – | – | – | – | N[C@@H](CC1CCC(Oc2ccc(CNCc3ccc4cc(C(=O)NO)sc4c3)cc2)CC1)C(=O)O (stereo partly drawn) [Example 29, 2-(S)-Amino-3-[4-(4-{[(2-hydroxycarbamoyl-benzo[b]thiophen-6-ylmethyl)-amino]-methyl}-phenoxy)-cyclohexyl]-propionic acid] | – | –
< 100 nM | 330 to 3300 nM | < 330 nM | – | – | N[C@@H](CC1CCC(Oc2ccc(CNCc3ccc4cc(C(=O)NO)sc4c3)cc2)CC1)C(=O)OC1CCCC1 (stereo partly drawn) [Example 28, 2-(S)-Amino-3-[4-(4-{[(2-hydroxycarbamoyl-benzo[b]thiophen-6-ylmethyl)-amino]-methyl}-phenoxy)-cyclohexyl]-propionic acid cyclopentyl ester] | < 330 nM | –
< 100 nM | 330 to 3300 nM | 330 to 3300 nM | – | – | CC(=O)N[C@@H](CCCOc1ccc(CNCc2ccc3cc(C(=O)NO)sc3c2)cc1)C(=O)OC1CCCC1 [Example 21, (S)-2-Acetylamino-5-(4-{[(2-hydroxycarbamoyl-benzo[b]thiophen-6-ylmethyl)-amino]-methyl}-phenoxy)-pentanoic acid cyclopentyl ester] | < 330 nM | –
< 100 nM | 330 to 3300 nM | < 330 nM | – | – | N[C@H](C(=O)OC1CCCC1)c1ccc(Oc2ccc(CNCc3ccc4cc(C(=O)NO)sc4c3)cc2)cc1 [Example 24, (S)-Amino-[4-(4-{[(2-hydroxycarbamoyl-benzo[b]thiophen-6-ylmethyl)-amino]-methyl}-phenoxy)-phenyl]-acetic acid cyclopentyl ester] | < 330 nM | –
< 100 nM | 330 to 3300 nM | < 330 nM | – | – | NC(C(=O)OC1CCCC1)C1CCC(Oc2ccc(CNCc3ccc4cc(C(=O)NO)sc4c3)cc2)CC1 (stereo not drawn) [Example 30, Amino-[4-(4-{[(2-hydroxycarbamoyl-benzo[b]thiophen-6-ylmethyl)-amino]-methyl}-phenoxy)-cyclohexyl]-acetic acid cyclopentyl ester] | < 330 nM | –
101 to 1000 nM | – | – | – | – | N[C@@H](CCCOc1ccc(CNCc2ccc3cc(C(=O)NO)sc3c2)cc1)C(=O)O [Example 18, (S)-2-Amino-5-(4-{[(2-hydroxycarbamoyl-benzo[b]thiophen-6-ylmethyl)-amino]-methyl}-phenoxy)-pentanoic acid] | – | –
< 100 nM | – | – | – | – | NC(C(=O)O)C1CCC(Oc2ccc(CNCc3ccc4cc(C(=O)NO)sc4c3)cc2)CC1 (stereo not drawn) [Example 31, Amino-[4(4-{[(2-hydroxycarbamoyl-benzo[b]thiophen-6-ylmethyl)-amino]-methyl}-phenoxy)-cyclohexyl]-acetic acid] | – | –
< 100 nM | 330 to 3300 nM | 330 to 3300 nM | – | – | COc1cc(CNCc2ccc3cc(C(=O)NO)sc3c2)ccc1OCCC[C@H](N)C(=O)OC1CCCC1 [Example 19, (S)-2-Amino-5-(4-{[(2-hydroxycarbamoyl-benzo[b]thiophen-6-ylmethyl)-amino]-methyl}-2-methoxyphenoxy)-pentanoic acid cyclopentyl ester] | 330 to 3300 nM | –
< 100 nM | – | – | – | – | N[C@@H](Cc1ccc(Oc2ccc(CNCc3ccc4cc(C(=O)NO)sc4c3)cc2)cc1)C(=O)O [Example 27, (S)-2-Amino-3-[4-(4-{[(2-hydroxycarbamoyl-benzo[b]thiophen-6-ylmethyl)-amino]-methyl}-phenoxy)-phenyl]-propionic acid] | – | –
< 100 nM | – | – | – | – | O=C(NO)c1cc2ccc(CNCc3ccc(OCCC[C@H](NC4CCCCC4)C(=O)O)cc3)cc2s1 [Example 23, (S)-2-Cyclohexylamino-5-(4-{[(2-hydroxycarbamoyl-benzo[b]thiophen-6-ylmethyl)-amino]-methyl}-phenoxy)-pentanoic acid] | – | –
